In patent US6242494A, “Substituted β-amino acid inhibitors of methionine aminopeptidase-2” (Abbott Laboratories, priority 1999, dated 2001):
Counter-ions that a name gives are not always drawn.

Biological target: T1, methionine aminopeptidase-2 (MetAP2) (Homo sapiens, UniProt P50579)
T1 construct: made in house; host or cells: insect cells, baculovirus system (secreted, purified from culture supernatant)
Assay: Inhibition of MetAP2 enzyme activity (96-well, Met-Ala-Ser substrate, L-amino acid oxidase/peroxidase/ortho-dianisidine, 450 nm)
Assay type: biochemical
Details: pH 7.4, Met-Ala-Ser substrate, 20 minutes

[1] = IC50, recombinant MetAP2 4 μg/mL

T1 sequence (P50579 whole entry): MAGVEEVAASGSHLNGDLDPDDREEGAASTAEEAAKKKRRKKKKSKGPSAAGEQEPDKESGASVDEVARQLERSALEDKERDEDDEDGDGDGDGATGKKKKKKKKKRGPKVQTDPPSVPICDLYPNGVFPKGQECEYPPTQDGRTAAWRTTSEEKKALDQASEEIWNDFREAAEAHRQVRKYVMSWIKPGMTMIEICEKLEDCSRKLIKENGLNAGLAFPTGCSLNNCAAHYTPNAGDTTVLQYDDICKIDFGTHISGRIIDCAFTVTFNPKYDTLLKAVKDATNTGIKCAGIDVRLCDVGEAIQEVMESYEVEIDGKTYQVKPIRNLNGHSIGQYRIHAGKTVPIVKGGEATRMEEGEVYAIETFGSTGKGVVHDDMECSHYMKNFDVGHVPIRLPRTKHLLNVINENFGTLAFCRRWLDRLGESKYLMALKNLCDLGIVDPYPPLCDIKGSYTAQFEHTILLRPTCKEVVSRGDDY

SMILES | IC50 [1] [µM] | IC50 (recombinant MetAP2 4 μg/mL) [µM]
CCOC(=O)CN(C)C(=O)C(O)[C@H](N)CCSCC (some centres unmarked) [Example 39, hydrochloride] | 5.1 | 
CCSCC[C@@H](NC(=O)CO)C(O)C(=O)NCCCCc1ccccc1 (some centres unmarked) [Example 40, hydrochloride] | 81 | 
CCSCC[C@@H](NCC(=O)OC)C(O)C(=O)NCCCCc1ccccc1 (stereo partly drawn) [Example 44, (2RS,3R)-N-((Phenylbutyryl)-3-methoxycarbonylmethylamino-2-hydroxy-4-ethylthio)pentanamide hydrochloride] | 13 | 
CCOC(=O)[C@H](CO)NC(=O)C(O)[C@H](N)CC1CCCCC1 (stereo partly drawn) [Example 46, (2RS,3R,1'S)-N-((2-hydroxy-1-ethoxycarbonylethyl)-3-amino-2-hydroxy-4-cyclohexyl)butanamide hydrochloride] | 1.1 | 
CC(=O)OC[C@H](C)NC(=O)C(O)[C@H](N)CC1CCCCC1 (some centres unmarked) [Example 47] | 1.5 | 
CCC(=O)OC[C@H](C)NC(=O)C(O)[C@H](N)CC1CCCCC1 (stereo partly drawn) [Example 48, (2RS,3R,2'S)-N-((2-propionyloxypropyl)-3-amino-b2-hydroxy-$-cyclohexyl)butanamide hydrochloride] | 1.5 | 
C[C@@H](COC(=O)c1ccccc1)NC(=O)C(O)[C@H](N)CC1CCCCC1 (stereo partly drawn) [Example 49, (2RS, 3R,2'S)-N-((2-benzoyloxypropyl)-3-amino-2-hydroxy-4-cyclohexyl)butanamide hydrochloride] | 2.2 | 
C[C@H](COC(=O)c1ccccc1)NC(=O)C(O)[C@H](N)CC1CCCCC1 (some centres unmarked) [Example 50, hydrochloride] | 3.7 | 
CCC(=O)OC[C@@H](C)NC(=O)C(O)[C@H](N)CC1CCCCC1 (some centres unmarked) [Example 51, hydrochloride] | 5 | 
CC(=O)OC[C@@H](C)NC(=O)C(O)[C@H](N)CC1CCCCC1 (stereo partly drawn) [Example 52, (2RS,3R,2'R)-N-((2-acetoxypropyl)-3-amino-2-hydroxy-4-cyclohexyl)butanamidehydrochloride] | 6.1 | 
C[C@H](NC(=O)C(O)[C@H](N)CC1CCCCC1)C(=O)OCc1ccccc1 (stereo partly drawn) [Example 53, (2RS,3R,1'S)-N-((1-benzyloxycarbonylethyl)-3-amino-2hydroxy-$-cyclohexyl)butanamide hydrochloride] | 1.8 | 
CCOC(=O)c1csc([C@H](C)NC(=O)C(O)[C@H](N)CC2CCCCC2)n1 (stereo partly drawn) [Example 54, (2RS,3R,1'-S)-N-(4-ethoxycarbonyl-2-(1'-aminoethyl)thizole)-3-amino-2-hydroxy-4-cyclohexyl)butanamide hydrochloride] | 2.6 | 
CN(C)c1cccc2c(S(=O)(=O)NCCCCCNC(=O)C(O)[C@H](N)CC3CCCCC3)cccc12 (stereo partly drawn) [Example 55, (2RS,3R) N-(monodansylcadaverenyl-3-amino-2-hydroxy-4-cyclohexyl)butanamidedihydrochloride] | 2.7 | 
Cc1ncc([N+](=O)[O-])n1CCNC(=O)C(O)[C@H](N)CC1CCCCC1 (stereo partly drawn) [Example 56, (2RS,3R) N-(2-methyl-5-nitroimidazole-ethyl) 3-amino-2-hydroxy-4-cyclohexyl)butanamide dihydrochloride] | 12 | 
N[C@H](CC1CCCCC1)C(O)C(=O)NCCNc1ccc([N+](=O)[O-])cn1 (stereo partly drawn) [Example 57, (2RS,3R) N-(5-nitropyridyl-2-aminoethyl) 3-amino-2-hydroxy-4-cyclohexyl)butanamide dihydrochloride] | 3.1 | 
COc1ccc2[nH]cc(CCNC(=O)C(O)[C@H](N)CC3CCCCC3)c2c1 (some centres unmarked) [Example 58] | 3.5 | 
COc1cc(CCNC(=O)C(O)[C@H](N)CC2CCCCC2)ccc1O (some centres unmarked) [Example 59] | 1.5 | 
N[C@H](CC1CCCCC1)C(O)C(=O)NCc1nc2ccccc2[nH]1 (stereo partly drawn) [Example 60, (2RS,3R) N-(2-aminomethylbenzimidazolyl) 3-amino-2-hydroxy-4-cyclohexyl)butanamide hydrochloride] | 18 | 
Cc1ncc([N+](=O)[O-])n1CCNC(=O)[C@H](C)NC(=O)C(O)[C@H](N)CC1CCCCC1 (stereo partly drawn) [Example 61, ((2RS,3R)-3-amino-2-hydroxy-4-cyclohexyl)butanoyl-L-alanyl-(2-methyl-5-nitroimidazolyl-ethyl)amide hydrochloride] | 13 | 
C[C@H](NC(=O)C(O)[C@H](N)CC1CCCCC1)C(=O)NCCNc1ccc([N+](=O)[O-])cn1 (stereo partly drawn) [Example 62, ((2RS,3R)-3-amino-2-hydroxy-4-cyclohexyl)butanoyl-L-alanyl-(5-nitropyridylaminoethyl)amide dihydrochloride] | 7.6 | 
CCOC(=O)C1CCN(C(=O)[C@H](C)NC(=O)C(O)[C@H](N)CC2CCCCC2)CC1 (stereo partly drawn) [Example 63, ((2RS,3R)-3-amino-2-hydroxy-4-cyclohexyl)butanoyl-L-alanyl-(ethylisonipecotate)amide hydrochloride] | 20 | 

SMILES | IC50 [1] [µM] | IC50 (recombinant MetAP2 4 μg/mL) [µM]
C[C@H](NC(=O)C(O)[C@H](N)CC1CCCCC1)C(=O)NCCCN1CCCC1=O (stereo partly drawn) [Example 64, ((b 2RS,3R)-3-amino-2-hydroxy-4-cyclohexyl)butanoyl-L-alanyl-(2-pyrrolidinopropyl)amide hydrochloride] | 19 | 
COc1ccc2[nH]cc(CCNC(=O)[C@H](C)NC(=O)C(O)[C@H](N)CC3CCCCC3)c2c1 (stereo partly drawn) [Example 65, ((2RS,3R)-3-amiono-2-hydroxy-4-cyclohexyl)butanoyl-L-alanyl-(5-methoxytryptamine)amide hydrochloride] |  | 5.6
COc1cc(CCNC(=O)[C@H](C)NC(=O)C(O)[C@H](N)CC2CCCCC2)ccc1O (stereo partly drawn) [Example 66, ((2RS,3R)-3-amino-2-hydroxy-4-cyclohexyl)butanoyl-L-alanyl-(3-O-methoxydopamine)amide hydrochloride] | 10 | 
C[C@H](NC(=O)C(O)[C@H](N)CC1CCCCC1)C(=O)NCc1nc2ccccc2[nH]1 (stereo partly drawn) [Example 67, ((2RS,3R)-3-amino-2-hydroxy-4-cyclohexyl)butanoyl-L-alanyl-(2-benzimidazolemethyl)amide hydrochloride] | 13 | 
C[C@H](NC(=O)C(O)[C@H](N)CC1CCCCC1)C(=O)Nc1cc(-c2ccccc2)[nH]n1 (stereo partly drawn) [Example 68, ((2RS,3R)-3-amino-2-hydroxy-4-cyclohexyl)butanoyl-L-alanyl-(5-phenyl-pyrazole-3)amide hydrochloride] | 3.8 | 
C[C@H](NC(=O)C(O)[C@H](N)CC1CCCCC1)C(=O)Nc1cc([N+](=O)[O-])ccc1O (stereo partly drawn) [Example 69, ((2RS,3R)-3-amino-2-hydroxy-4-cyclohexyl)butanoyl-L-alanyl-(2-hydroxy-5-nitrophen-1-yl)amide hydrochloride] | 5.3 | 
C[C@H](NC(=O)C(O)[C@H](N)CC1CCCCC1)C(=O)Nc1ncc(Br)s1 (stereo partly drawn) [Example 70, ((2RS,3R)-3-amino-2-hydroxy-4-cyclohexyl)butanoyl-L-alanyl-(5-bromothizole-2)amide hydrochloride] | 5.4 | 
C[C@H](NC(=O)C(O)[C@H](N)CC1CCCCC1)C(=O)Nc1ccc([N+](=O)[O-])cc1O (stereo partly drawn) [Example 71, ((2RS,3R)-3-amino-2-hydroxy-4-cyclohexyl)butanoyl-L-alanyl-(4-nitro-2-hydroxyphen-1-yl)amide hydrochloride] | 12 | 
CCn1nccc1NC(=O)[C@H](C)NC(=O)C(O)[C@H](N)CC1CCCCC1 (stereo partly drawn) [Example 72, ((2RS,3R)-3-amino-2-hydroxy-4-cyclohexyl)butanoylL-alanyl-(1-ethylpyrazole)amide hydrochloride] | 9.2 | 
CCOC(=O)C1CCN(C(=O)C(O)[C@H](N)CC2CCCCC2)CC1 (stereo partly drawn) [Example 73, ((2RS,3R)-3-amino-2hydroxy-4-cyclohexyl)butanoyl-(ethylisonipecotate)amide hydrochloride] | 6.8 | 
N[C@H](CC1CCCCC1)C(O)C(=O)NCCCn1ccnc1 (stereo partly drawn) [Example 74, ((2RS,3R)-3-amino-2-hydroxy-4-cyclohexyl)butanoyl-(3-imidazolylpropyl)amidedihydrochloride] | 30 | 
C[C@H](NC(=O)C(O)[C@H](N)CC1CCCCC1)c1nc(C(=O)O)cs1 (stereo partly drawn) [Example 75, (2RS,3R)-3-amino-2-hydroxy-4-cyclohexyl)butanoyl-(4-carboxyl-2-(1'amino)ethyl thizole hydrochloride] | 9.4 | 
N[C@H](CC1CCCCC1)C(O)C(=O)NCCCCNC(=O)OCc1ccccc1 (stereo partly drawn) [Example 77, (2RS,3R)-3-amino-2-hydroxy-4-cyclohexyl)butanoyl-(4-benzloxycarbonylamino)butylamide hydrochloride] | 3.3 | 
N[C@H](CC1CCCCC1)C(O)C(=O)NCCNC(=O)OCc1ccccc1 (some centres unmarked) [Example 78, hydrochloride] | 1.8 | 
CCSCC[C@@H](N)C(O)C(=O)NCCCCCNS(=O)(=O)c1cccc2c(N(C)C)cccc12 (some centres unmarked) [Example 79, dihydrochloride] | 0.1 | 
Cc1ccc(S(=O)(=O)NCCCCNC(=O)C(O)[C@H](N)CC2CCCCC2)cc1 (stereo partly drawn) [Example 80, (2RS,3R)-3-amino-2-hydroxy-4-cyclohexyl)butanoyl-(4-(4-toluenesulfonyl)aminobutyl)amide hydrochloride] | 1.3 | 
Cc1ccc(S(=O)(=O)NCCNC(=O)C(O)[C@H](N)CC2CCCCC2)cc1 (stereo partly drawn) [Example 81, (2RS,3R)-3-amino-2-hydroxy-4-cyclohexyl)butanoyl-(2-4-toluenesulfonylaminoethyl)amide hydrochloride] | 1.8 | 
NCCCCNC(=O)C(O)[C@H](N)CC1CCCCC1 (stereo partly drawn) [Example 82, (2RS,3R)-3-amino-2-hydroxy-4-cyclohexyl)butanoyl-(4-aminobutyl)amide dihydrochloride] | 38 | 
NCCNC(=O)C(O)[C@H](N)CC1CCCCC1 (stereo partly drawn) [Example 83, (2RS,3R)-3-amino-2-hydroxy-4-cyclohexyl)butanoyl-(2-aminoethyl)amide dihydrochloride] | 26 | 
CC(=O)Nc1ccc(S(=O)(=O)NCCCCNC(=O)C(O)[C@H](N)CC2CCCCC2)cc1 (stereo partly drawn) [Example 86, (2RS,3R)-N-(4-(((4-(acetylamiono)phenyl)sulfonyl)amino)butyl)-3-amino-4-cyclohexyl-2-hydroxybutanamide hydrochloride] | 1.7 | 
